Assay results: patent publication US10111433B2 (priority 2014, dated 2018)
Where two headings read alike, the source gives them in different places.

Tests used:
Phytophthora infestans [1] = format: in vivo
Phytophthora infestans [2] = format: in vivo; conditions: Table B3; A-1.2 15 gai/ha; leaf area, four days after final application
Plasmopara viticola = assay: Field activity against Plasmopara viticola on grapevine; format: in vivo; conditions: Table B2; A-1.2 22.5 gai/ha; bunches, ten days after sixth application
Description: Merlot grapevines were cultivated in rows with 1 m between plants within the row, and 2 m spaces between rows. Treatment plots were defined with an 8 m^2 vertical area. The trial consisted of three replicates of the treatment list, with the positions of each treatment plot randomised within the replicate.
Test compounds were formulated and applied to the relevant treatment plots, using a backpack sprayer with a flat fan nozzle. The first application was made when the majority of plants were at growth stage BBCH 15 and following applications at 10-14 day intervals through to growth stage BBCH 79.
The first symptoms of the target pathogen Plasmopara viticola were observed between the second and third applications. Plants outside the trial area were inoculated to increase the disease pressure, but infection processes within the trial plots were natural. […]
Ten days after the sixth application, at growth stage BBCH 79, the fruit was assessed for infection by Plasmopara viticola. 50 bunches per plot were assessed, the scores given in table B2 are percent disease control relative to untreated, based on the mean percentage of bunches showing symptoms of infection across all three replicates of a treatment.

Phytophthora capsici = assay: Activity against Phytophthora capsici, growth inhibition in nutrient broth (microtiter plate); format: cell-based; conditions: Phytophthora capsici, read-out: % disease control; for inhibition of growth at 6.25e-05 ppm: A-1.2 0.0000625 ppm; for inhibition of growth at 0.0005 ppm: A-1.2 0.0005000 ppm; for inhibition of growth at 3.9e-06 ppm: A-1.2 0.0000039 ppm; for inhibition of growth at 7.8e-06 ppm: A-1.2 0.0000078 ppm; for inhibition of growth at 1.56e-05 ppm: A-1.2 0.0000156 ppm; for inhibition of growth at 3.13e-05 ppm: A-1.2 0.0000313 ppm
Procedure: Conidia of the fungus from cryogenic storage are directly mixed into nutrient broth (PDB potato dextrose broth). After placing a (DMSO) solution of test compound into a microtiter plate (96-well format), the nutrient broth containing the fungal spores is added. […] Table B4 to B21 gives the mean percent control relative to untreated.

O=C(N[C@@H]1CCCc2ccccc21)c1cc(C2CCN(C(=O)Cn3nc(C(F)F)cc3C(F)F)CC2)ccn1 [Compound A-1.2, 1′-[2-(3,5-bis-difluoromethyl-pyrazol-1-yl)-acetyl]-1′,2′,3′,4′,5′,6′-hexahydro-[4,4′]bipyridinyl-2-carboxylic acid (R)-(1,2,3,4-tetrahydronaphthalen-1-yl)-amide]
% disease control (Phytophthora infestans [1]; Table B1.1, A-1.2 0.02 ppm): 0% | % disease control (Phytophthora infestans [1]; Table B1.1, A-1.2 0.06 ppm): 14% | % disease control (Phytophthora infestans [1]; Table B1.2, A-1.2 0.06 ppm): 14% | % disease control (Phytophthora infestans [1]; Table B1.3, A-1.2 0.06 ppm): 14% | % disease control relative to untreated (Phytophthora infestans [2]): 64.8% | % disease control relative to untreated (Plasmopara viticola): 87.3% | inhibition of growth at 6.25e-05 ppm (Phytophthora capsici; Table B4): 0% | inhibition of growth at 0.000125 ppm (Phytophthora capsici; Table B4, A-1.2 0.0001250 ppm): 32% | inhibition of growth at 0.00025 ppm (Phytophthora capsici; Table B4, A-1.2 0.0002500 ppm): 64% | inhibition of growth at 0.0005 ppm (Phytophthora capsici; Table B4): 76% | inhibition of growth at 2e-06 ppm (Phytophthora capsici; Table B5, A-1.2 0.0000020 ppm): 0% | inhibition of growth at 3.9e-06 ppm (Phytophthora capsici; Table B5): 0% | inhibition of growth at 7.8e-06 ppm (Phytophthora capsici; Table B5): 0% | inhibition of growth at 1.56e-05 ppm (Phytophthora capsici; Table B5): 0% | inhibition of growth at 3.13e-05 ppm (Phytophthora capsici; Table B5): 0% | inhibition of growth at 6.25e-05 ppm (Phytophthora capsici; Table B5): 47% | inhibition of growth at 6.25e-05 ppm (Phytophthora capsici; Table B6): 0% | inhibition of growth at 0.000125 ppm (Phytophthora capsici; Table B6, A-1.2 0.0001250 ppm): 40% | inhibition of growth at 0.00025 ppm (Phytophthora capsici; Table B6, A-1.2 0.0002500 ppm): 78% | inhibition of growth at 3.9e-06 ppm (Phytophthora capsici; Table B7): 0% | inhibition of growth at 7.8e-06 ppm (Phytophthora capsici; Table B7): 0% | inhibition of growth at 1.56e-05 ppm (Phytophthora capsici; Table B7): 0% | inhibition of growth at 3.13e-05 ppm (Phytophthora capsici; Table B7): 0% | inhibition of growth at 6.25e-05 ppm (Phytophthora capsici; Table B7): 38% | inhibition of growth at 0.000125 ppm (Phytophthora capsici; Table B7, A-1.2 0.0001250 ppm): 42% | inhibition of growth at 6.25e-05 ppm (Phytophthora capsici; Table B8): 3% | inhibition of growth at 0.000125 ppm (Phytophthora capsici; Table B8, A-1.2 0.0001250 ppm): 56% | inhibition of growth at 0.00025 ppm (Phytophthora capsici; Table B8, A-1.2 0.0002500 ppm): 69% | inhibition of growth at 6.25e-05 ppm (Phytophthora capsici; Table B9): 0% | inhibition of growth at 0.000125 ppm (Phytophthora capsici; Table B9, A-1.2 0.0001250 ppm): 47% | inhibition of growth at 6.25e-05 ppm (Phytophthora capsici; Table B10): 12% | inhibition of growth at 0.000125 ppm (Phytophthora capsici; Table B10, A-1.2 0.0001250 ppm): 62% | inhibition of growth at 6.25e-05 ppm (Phytophthora capsici; Table B11): 0% | inhibition of growth at 0.000125 ppm (Phytophthora capsici; Table B11, A-1.2 0.0001250 ppm): 55% | inhibition of growth at 0.00025 ppm (Phytophthora capsici; Table B11, A-1.2 0.0002500 ppm): 82% | inhibition of growth at 3.13e-05 ppm (Phytophthora capsici; Table B12): 0% | inhibition of growth at 6.25e-05 ppm (Phytophthora capsici; Table B12): 0% | inhibition of growth at 0.000125 ppm (Phytophthora capsici; Table B12, A-1.2 0.0001250 ppm): 57% | inhibition of growth at 0.00025 ppm (Phytophthora capsici; Table B12, A-1.2 0.0002500 ppm): 81% | inhibition of growth at 0.000125 ppm (Phytophthora capsici; Table B13, A-1.2 0.0001250 ppm): 46% | inhibition of growth at 0.00025 ppm (Phytophthora capsici; Table B13, A-1.2 0.0002500 ppm): 69% | inhibition of growth at 0.0005 ppm (Phytophthora capsici; Table B13): 84% | inhibition of growth at 1.56e-05 ppm (Phytophthora capsici; Table B14): 0% | inhibition of growth at 3.13e-05 ppm (Phytophthora capsici; Table B14): 0% | inhibition of growth at 6.25e-05 ppm (Phytophthora capsici; Table B14): 0% | inhibition of growth at 1.56e-05 ppm (Phytophthora capsici; Table B15): 0% | inhibition of growth at 3.13e-05 ppm (Phytophthora capsici; Table B15): 0% | inhibition of growth at 6.25e-05 ppm (Phytophthora capsici; Table B15): 0% | inhibition of growth at 0.000125 ppm (Phytophthora capsici; Table B15, A-1.2 0.0001250 ppm): 71% | inhibition of growth at 0.000125 ppm (Phytophthora capsici; Table B16, A-1.2 0.0001250 ppm): 54% | inhibition of growth at 6.25e-05 ppm (Phytophthora capsici; Table B17): 0% | inhibition of growth at 0.000125 ppm (Phytophthora capsici; Table B17, A-1.2 0.0001250 ppm): 67% | inhibition of growth at 0.00025 ppm (Phytophthora capsici; Table B17, A-1.2 0.0002500 ppm): 79% | inhibition of growth at 0.0005 ppm (Phytophthora capsici; Table B17): 82% | inhibition of growth at 7.8e-06 ppm (Phytophthora capsici; Table B18): 0% | inhibition of growth at 1.56e-05 ppm (Phytophthora capsici; Table B18): 0% | inhibition of growth at 3.13e-05 ppm (Phytophthora capsici; Table B18): 0% | inhibition of growth at 6.25e-05 ppm (Phytophthora capsici; Table B18): 0% | inhibition of growth at 0.000125 ppm (Phytophthora capsici; Table B18, A-1.2 0.0001250 ppm): 46% | inhibition of growth at 1.56e-05 ppm (Phytophthora capsici; Table B19): 0% | inhibition of growth at 3.13e-05 ppm (Phytophthora capsici; Table B19): 0% | inhibition of growth at 6.25e-05 ppm (Phytophthora capsici; Table B19): 0% | inhibition of growth at 0.000125 ppm (Phytophthora capsici; Table B19, A-1.2 0.0001250 ppm): 38% | inhibition of growth at 0.00025 ppm (Phytophthora capsici; Table B19, A-1.2 0.0002500 ppm): 81% | inhibition of growth at 6.25e-05 ppm (Phytophthora capsici; Table B20): 66% | inhibition of growth at 0.000125 ppm (Phytophthora capsici; Table B20, A-1.2 0.0001250 ppm): 83% | inhibition of growth at 6.3e-05 ppm (Phytophthora capsici; Table B21, A-1.2 0.000063 ppm): 0% | inhibition of growth at 0.000125 ppm (Phytophthora capsici; Table B21, A-1.2 0.000125 ppm): 69% | inhibition of growth at 0.00025 ppm (Phytophthora capsici; Table B21, A-1.2 0.000250 ppm): 78%
